Experimental data as given in ChEMBL document CHEMBL1201862, “PubChem BioAssay data set” (2004).
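Each compound was tested at five concentrations against cells in 96-well plates for 48 hours. At the GI50, growth is halved.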 The source made the active and inactive calls. No stated cut-off is given here; in the data, active = GI50 up to about 1.1 µM and inactive = higher.

Tests used:
Assay in all cases: growth of human tumour cells (NCI), 48 h
786-0 = tested on: 786-0
CCRF-CEM = tested on: CCRF-CEM
ACHN = tested on: ACHN
Malme-3M = tested on: Malme-3M
EKVX = tested on: EKVX
SR = tested on: SR
RPMI-8226 = tested on: RPMI-8226
TK-10 = tested on: TK-10
U-251 = tested on: U-251
LOX IMVI = tested on: LOX IMVI
OVCAR-8 = tested on: OVCAR-8
HT-29 = tested on: HT-29
UO-31 = tested on: UO-31
M14 = tested on: M14
SK-MEL-5 = tested on: SK-MEL-5
NCI-H23 = tested on: NCI-H23
HOP-92 = tested on: HOP-92

Row | Structure (SMILES) | GI50 (786-0) | GI50 (CCRF-CEM) | GI50 (ACHN) | GI50 (Malme-3M) | GI50 (EKVX) | GI50 (SR) | GI50 (RPMI-8226) | GI50 (TK-10) | GI50 (U-251) | GI50 (LOX IMVI) | GI50 (OVCAR-8) | GI50 (HT-29) | GI50 (UO-31) | GI50 (M14) | GI50 (SK-MEL-5) | GI50 (NCI-H23) | GI50 (HOP-92)
1 | Oc1cc(-c2ccc[nH]2)nc2cc3c(cc12)OCO3 | 40.6 µM (inactive) | 24.1 µM (inactive) | 88.1 µM (inactive) | 17.1 µM (inactive) | 55.3 µM (inactive) | 37.2 µM (inactive) | 43 µM (inactive) | 62.8 µM (inactive) | 65.9 µM (inactive) | 64.1 µM (inactive) | 46.7 µM (inactive) | 29.8 µM (inactive) | 56.5 µM (inactive) | 32.2 µM (inactive) |  |  | 
2 | Cc1cc(N(CCC#N)S(=O)(=O)c2ccccc2)ccc1/C=C1N=C(/C=C/c2ccccc2)OC\1=O | > 100 µM (inactive) | > 100 µM (inactive) | > 100 µM (inactive) | > 100 µM (inactive) | > 100 µM (inactive) |  | > 100 µM (inactive) | > 100 µM (inactive) | > 100 µM (inactive) | > 100 µM (inactive) | > 100 µM (inactive) | > 100 µM (inactive) | 70.8 µM (inactive) | > 100 µM (inactive) | 77.6 µM (inactive) | > 100 µM (inactive) | 
3 | CCCCCCCCCCCCCCCC(=O)OCC1OC(n2cc(F)c(=O)[nH]c2=O)C(NC(=O)N(CCCl)N=O)C(O)C1O (stereo not drawn) | 0.166 µM (active) | 0.611 µM (active) | 1.64 µM (inactive) | 4.47 µM (inactive) | 2.58 µM (inactive) |  | 3.06 µM (inactive) | 10.1 µM (inactive) | 0.0585 µM (active) | 0.157 µM (active) | 3.86 µM (inactive) | 4.68 µM (inactive) | 12.3 µM (inactive) | 4.06 µM (inactive) | 3.94 µM (inactive) | 0.731 µM (active) | 3.65 µM (inactive)
4 | O=C(NC12CC3CC(CC(C3)C1)C2)C(=O)c1c[nH]c2ccc([N+](=O)[O-])cc12 | 16.9 µM (inactive) | > 44.9 µM (inactive) | 90.4 µM (inactive) | 24.7 µM (inactive) | 97.3 µM (inactive) | 14 µM (inactive) | > 83 µM (inactive) | 24.9 µM (inactive) | 10.9 µM (inactive) | 15.3 µM (inactive) | 19 µM (inactive) | > 44.4 µM (inactive) | > 47.2 µM (inactive) | 34 µM (inactive) | 30.3 µM (inactive) | 38.7 µM (inactive) | 30.3 µM (inactive)
5 | COc1cc(-c2cccs2)sc1-c1cccs1 | 39.3 µM (inactive) | 29.3 µM (inactive) | 53.5 µM (inactive) | 39 µM (inactive) | 6.55 µM (inactive) | 17.7 µM (inactive) | 52.4 µM (inactive) | 41.6 µM (inactive) | 43.6 µM (inactive) | 46.2 µM (inactive) | 97.1 µM (inactive) | 20.7 µM (inactive) | 38.2 µM (inactive) | 35.3 µM (inactive) | 29.7 µM (inactive) | 15.7 µM (inactive) | 24.5 µM (inactive)
6 | O=C(Nc1nnn[nH]1)c1nc(O)cc(-c2ccccc2)n1 | > 100 µM (inactive) | > 100 µM (inactive) | > 100 µM (inactive) | > 100 µM (inactive) | > 100 µM (inactive) | > 100 µM (inactive) | > 100 µM (inactive) | > 100 µM (inactive) | > 100 µM (inactive) |  | > 100 µM (inactive) | > 100 µM (inactive) | > 100 µM (inactive) | > 100 µM (inactive) | > 100 µM (inactive) | > 100 µM (inactive) | > 100 µM (inactive)
7 | CCOC(=O)C1=C(C)N(NC(N)=O)C2(N)N(NC(N)=O)C(C)=C(C(=O)OCC)C12C(=O)OCC (stereo not drawn) | > 100 µM (inactive) |  | > 100 µM (inactive) | > 100 µM (inactive) | > 100 µM (inactive) | > 100 µM (inactive) | > 100 µM (inactive) |  | > 100 µM (inactive) | > 100 µM (inactive) | > 100 µM (inactive) | > 100 µM (inactive) | > 100 µM (inactive) | > 100 µM (inactive) | > 100 µM (inactive) |  | 
8 | O=[N+]([O-])c1nccn1COCCBr | > 100 µM (inactive) | > 100 µM (inactive) | > 100 µM (inactive) | > 100 µM (inactive) | > 100 µM (inactive) | > 100 µM (inactive) | > 100 µM (inactive) | > 100 µM (inactive) | > 100 µM (inactive) | > 100 µM (inactive) | > 100 µM (inactive) | > 100 µM (inactive) | > 100 µM (inactive) | > 100 µM (inactive) | > 100 µM (inactive) | > 100 µM (inactive) | > 100 µM (inactive)
9 | CCOC(=O)C1(Cc2ccccc2)CCCCCN1 (stereo not drawn) | > 100 µM (inactive) |  | > 100 µM (inactive) | 50.1 µM (inactive) | > 100 µM (inactive) |  |  | > 100 µM (inactive) | > 100 µM (inactive) | > 100 µM (inactive) | > 100 µM (inactive) | > 100 µM (inactive) | > 100 µM (inactive) | > 100 µM (inactive) |  | > 100 µM (inactive) | > 100 µM (inactive)
